# Test results taken from patent US20220242879A1, “FUSED HETEROCYCLE DERIVATIVES” (Janssen Sciences Ireland Unlimited Company, priority 2019, published 2022).
# Read-outs that look alike come from different tables or passages of the source.
# How the values were obtained:
# HBV [1] = experiment: HBV replication inhibition assay (BDNA assay), HepG2.2.15 cells; type: cell-based, Hepatitis B virus; conditions: 6 days, HBV DNA in supernatant by branched DNA QuantiGene
# Procedure: HBV replication inhibition by the disclosed compounds were determined in cells infected or transfected with HBV or cells with stably integrated HBV, such as HepG2.2.15 cells (Sells et al. 1987). In this example, HepG2.2.15 cells were maintained in cell culture medium containing 10% fetal bovine serum (FBS), Geneticin, L-glutamine, penicillin and streptomycin. HepG2.2.15 cells were seeded in 96-well plates at a density of 40,000 cells/well and were treated with serially diluted compounds at a final DMSO concentration of 0.5% either alone or in combination by adding drugs in a checker box format. […] HBV DNA was denatured by addition of 0.2 M NaOH and detected using a branched DNA (BDNA) QuantiGene assay kit according to manufacturer recommendation (Affymetrix). HBV DNA levels were also quantified using qPCR, based on amplification of encapsidated HBV DNA extraction with QuickExtraction Solution (Epicentre Biotechnologies) and amplification of HBV DNA using HBV specific PCR probes that can hybridize to HBV DNA and a fluorescently labeled probe for quantitation. In addition, cell viability of HepG2.2.15 cells incubated with test compounds alone or in combination was determined by using CellTitre-Glo reagent according to the manufacturer protocol (Promega). […]
# HBV [2] = experiment: Anti-HBV activity, HepG2.117 cell line, intracellular HBV DNA by real-time PCR; type: cell-based, Hepatitis B virus; conditions: Hepatitis B virus, read-out: HBV-AVE-HepG2.117 EC50
# Procedure: The anti HBV activity was measured using the HepG2.117 cell line, a stable, inducibly HBV producing cell line, which replicates HBV in the absence of doxicycline (Tet-off system). The HepG2 cell line is available from ATCC® under number HB-8065. Transfection of the HepG2 cell line can be as described in Sun and Nassal 2006 Journal of Hepatology 45 (2006) 636-645 “Stable HepG2- and Huh7-based human hepatoma cell lines for efficient regulated expression of infectious hepatitis B virus”.
# For the antiviral assay, HBV replication was induced, followed by a treatment with serially diluted compound in 96-well plates. After 3 days of treatment, the antiviral activity was determined by, quantification of intracellular HBV DNA using real-time PCR and an HBV specific primer set and probe.
# [3] = Cytotoxicity, ATPlite Luminescence Assay; type: cell-based, human; conditions: human, mean value, cells incubated for 3 days, viability by ATPlite, read-out: TOX-HepC2.117 CC50
# Procedure: Cytotoxicity of the compounds was tested using HepG2 or HepG2.117 cells, incubated for 3 days in the presence of compounds. The viability of the cells was assessed using the PERKIN ELMER ATPlite Luminescence Assay System.”
# [4] = 72 h, mean value, HepG2.117 cells, 3 days of treatment, intracellular HBV DNA
Compound,EC50 (HBV [1]),EC50 (HBV [2]; [4]),CC50 at 3 days ([3]; HepG2.117 cells),"EC50 (HBV [2]; HepG2.117, 72 h)",CC50 at 3 days [3]
"N#Cc1cc(NC(=O)N2CCc3nn4c(c3C2)-c2nocc2CC(COCC(F)F)C4)ccc1F (single isomer, unassigned) [Example 5a, (5S*)-N-3-Cyano-4-fluorophenyl)-5-(2,2-difluoroethoxy)methyl)-5,6,9,10-tetrahydro-4H-isoxazolo[3,4-c]pyrido[4′,3′:3,4]pyrazolo[1,5-a]azepine-11(12H)-carboxamide]",82 nM,–,–,–,–
"C=C1Cc2c(noc2N(C)C)-c2c3c(nn2C1)CCN(C(=O)c1ccc(Cl)c(Cl)c1)C3 [Compound 26, (3,4-Dichlorophenyl)[3-(dimethylamino)-5-methylidene-5,6,9,10-tetrahydro-4H-[1,2]oxazolo-[3,4-c]pyrido[4′,3′:3,4]pyrazolo[1,5-a]azepin-11(12H)-yl]methanone]",–,1150 nM,> 50000 nM,–,–
O=C(c1ccc(Cl)c(Cl)c1)N1CCc2nn3c(c2C1)-c1nocc1CC(CO)C3 (centres unmarked) [Compound 27],–,393 nM,> 50000 nM,–,–
"O=C(O)C1Cc2conc2-c2c3c(nn2C1)CCN(C(=O)c1ccc(Cl)c(Cl)c1)C3 (centres unmarked) [Compound 29, 11-(3,4-Dichlorobenzoyl)-5,6,9,10,11,12-hexahydro-4H-[1,2]oxazolo[3,4-c]pyrido[4′,3′:3,4]-pyrazolo[1,5-a]azepine-5-carboxylic Acid]",–,15500 nM,> 50000 nM,–,–
"CCNC(=O)C1Cc2conc2-c2c3c(nn2C1)CCN(C(=O)c1ccc(Cl)c(Cl)c1)C3 (centres unmarked) [Compound 32, 11-(3,4-Dichlorobenzoyl)-N-ethyl-5,6,9,10,11,12-hexahydro-4H-[1,2]oxazolo[3,4-c]pyrido-[4′,3′:3,4]pyrazolo[1,5-a]azepine-5-carboxamide]",–,90 nM,> 50000 nM,–,–
"O=C(NC1CC1)C1Cc2conc2-c2c3c(nn2C1)CCN(C(=O)c1ccc(Cl)c(Cl)c1)C3 (centres unmarked) [Compound 33, N-Cyclopropyl-11-(3,4-dichlorobenzoyl)-5,6,9,10,11,12-hexahydro-4H-[1,2]oxazolo[3,4-c]-pyrido[4′,3′:3,4]pyrazolo[1,5-a]azepine-5-carboxamide]",–,–,–,154 nM,> 50000 nM
"O=C(NCCO)C1Cc2conc2-c2c3c(nn2C1)CCN(C(=O)c1ccc(Cl)c(Cl)c1)C3 (centres unmarked) [Compound 34, 11-(3,4-Dichlorobenzoyl)-N-(2-hydroxyethyl)-5,6,9,10,11,12-hexahydro-4H-[1,2]oxazolo-[3,4-c]pyrido[4′,3′:3,4]pyrazolo[1,5-a]azepine-5-carboxamide]",–,358 nM,> 50000 nM,–,–
"O=C(NCC(F)(F)F)C1Cc2conc2-c2c3c(nn2C1)CCN(C(=O)c1ccc(Cl)c(Cl)c1)C3 (centres unmarked) [Compound 35, 11-(3,4-Dichlorobenzoyl)-N-(2,2,2-trifluoroethyl)-5,6,9,10,11,12-hexahydro-4H-[1,2]oxazolo-[3,4-c]pyrido[4′,3′:3,4]pyrazolo[1,5-a]azepine-5-carboxamide]",–,395 nM,> 50000 nM,–,–
"CN(C)C(=O)C1Cc2conc2-c2c3c(nn2C1)CCN(C(=O)c1ccc(Cl)c(Cl)c1)C3 (centres unmarked) [Compound 36, 11-(3,4-Dichlorobenzoyl)-N,N-dimethyl-5,6,9,10,11,12-hexahydro-4H-[1,2]oxazolo[3,4-c]pyrido[4′,3′:3,4]pyrazolo[1,5-a]azepine-5-carboxamide]",–,686 nM,> 50000 nM,–,–
"O=C(Nc1ccccc1)C1Cc2conc2-c2c3c(nn2C1)CCN(C(=O)c1ccc(Cl)c(Cl)c1)C3 (centres unmarked) [Compound 37, 11-(3,4-Dichlorobenzoyl)-N-phenyl-5,6,9,10,11,12-hexahydro-4H-[1,2]oxazolo[3,4-c]-pyrido[4′,3′:3,4]pyrazolo[1,5-a]azepine-5-carboxamide]",–,–,–,343 nM,> 50000 nM
"O=C(c1ccc(Cl)c(Cl)c1)N1CCc2nn3c(c2C1)-c1nocc1CC(C(=O)N1CCOCC1)C3 (centres unmarked) [Compound 38, [1-(3,4-Dichlorobenzoyl)-5,6,9,10,11,12-hexahydro-4H-[1,2]oxazolo[3,4-c]pyrido[4′,3′:3,4]-pyrazolo[1,5-a]azepin-5-yl](morpholin-4-yl)methanone]",–,1440 nM,> 50000 nM,–,–
"O=C(c1ccc(Cl)c(Cl)c1)N1CCc2nn3c(c2C1)-c1oncc1CCC3 [Compound 39, (3,4-Dichlorophenyl)(4,5,6,9,10,12-hexahydro-11H-[1,2]oxazolo[5,4-c]pyrido[4′,3′:3,4]-pyrazolo[1,5-a]azepin-11-yl)methanone]",–,1340 nM,43600 nM,–,–
"O=C(c1ccc(Cl)c(Cl)c1)N1CCc2nn3c(c2C1)-c1ncoc1CCC3 [Compound 40, (3,4-Dichlorophenyl)(4,5,6,9,10,12-hexahydro-11H-[1,3]oxazolo[4,5-c]pyrido-[4′,3′:3,4]pyrazolo[1,5-a]azepin-11-yl)methanone]",–,499 nM,> 50000 nM,–,–
"O=C(c1ccc(Cl)c(Cl)c1)N1CCc2nn3c(c2C1)-c1n[nH]cc1CCC3 [Compound 41, (3,4-Dichlorophenyl)(2,5,6,9,10,12-hexahydropyrazolo[3,4-c]pyrido[4′,3′,3,4]pyrazolo[1,5-a]-azepin-11(4H)-yl)methanone]",–,749 nM,25600 nM,–,–
"Cn1cc2c(n1)-c1c3c(nn1CCC2)CCN(C(=O)c1ccc(Cl)c(Cl)c1)C3 [Compound 42, (3,4-Dichlorophenyl)(2-methyl-2,5,6,9,10,12-hexahydropyrazolo[3,4-c]pyrido[4′,3′:3,4]-pyrazolo[1,5-a]azepin-11(4H)-yl)methanone]",–,> 48800 nM,> 50000 nM,–,–
"O=C(c1ccc(Cl)c(Cl)c1)N1CCc2nn3c(c2C1)-c1n[nH]cc1CC(CO)C3 (centres unmarked) [Compound 43, (3,4-Dichlorophenyl)[5-(hydroxymethyl)-2,5,6,9,10,12-hexahydropyrazolo[3,4-c]pyrido-[4′,3′:3,4]pyrazolo[1,5-a]azepin-11(41)-yl]methanone]",–,2320 nM,> 50000 nM,–,–
"O=C(c1ccc(Cl)c(Cl)c1)N1CCc2nn3c(c2C1)-c1nc[nH]c1CCC3 [Compound 44, (3,4-Dichlorophenyl)(4,5,6,9,10,12-hexahydroimidazo[4,5-c]pyrido[4′,3′:3,4]pyrazolo[1,5-a]azepin-11(3H)-yl)methanone]",–,574 nM,> 50000 nM,–,–
"Cn1cnc2c1CCCn1nc3c(c1-2)CN(C(=O)c1ccc(Cl)c(Cl)c1)CC3 [Compound 45, (3,4-Dichlorophenyl)(3-methyl-4,5,6,9,10,12-hexahydroimidazo[4,5-c]pyrido[4′,3′:3,4]pyrazolo-[1,5-a]azepin-11(3H)-yl)methanone]",–,4970 nM,> 50000 nM,–,–
"O=C(c1ccc(Cl)c(Cl)c1)N1CCc2nn3c(c2C1)-c1ncsc1CCC3 [Compound 46, (3,4-Dichlorophenyl)(4,5,6,9,10,12-hexahydro-11H-pyrido[4′,3′:3,4]pyrazolo[1,5-a][1,3]-thiazolo[4,5-c]azepin-11-yl)methanone]",–,236 nM,27100 nM,–,–
"Nc1nc2c(s1)CCCn1nc3c(c1-2)CN(C(=O)c1ccc(Cl)c(Cl)c1)CC3 [Compound 51, (2-amino-4,5,6,9,10,12-hexahydro-11H-pyrido[4′,3′:3,4]pyrazolo[1,5-a]thiazolo[4,5-c]azepin-11-yl)(3,4-dichlorophenyl)methanone]",–,> 10000 nM,> 50000 nM,–,–
O=C(c1cnc(Cl)c(Cl)c1)N1CCc2nn3c(c2C1)-c1nocc1CC(O)C3 (centres unmarked) [Compound 53],–,> 10000 nM,> 50000 nM,–,–
